Article PMC10054553, “Development of the First ^18F-Labeled Radiohybrid-Based Minigastrin Derivative with High Target Affinity and Tumor Accumulation by Substitution of the Chelating Moiety” (Pharmaceutics, 2023)
Like-named read-outs stand apart in the source and are kept apart here.

Columns and labels:
[1] = system: AR42J tumor-bearing CB17-SCID mice; test: Biodistribution in AR42J tumor-bearing CB17-SCID mice; assay type: in vivo; settings: 24 h p.i.
Method: (§1) All animal experiments were conducted in accordance with general animal welfare regulations in Germany (German animal protection act, in the edition of the announcement, dated 18 May 2006, as amended by Article 280 of 19 June 2020, approval no. ROB-55.2-1-2532.Vet_02-18-109 by the General Administration of Upper Bavaria) and the institutional guidelines for the care and use of animals. CB17-SCID mice of both genders and aged 2–12 months (Charles River Laboratories International Inc., Sulzfeld, Germany) were allowed to acclimate at the in-house animal facility for at least one week before inoculation was performed. Tumor xenografts were established as previously reported. Exclusion criteria for animals from an experiment were either weight loss higher than 20%, a tumor size above 1500 mm^3, an ulceration of the tumor, respiratory distress or a change of behavior. None of these criteria applied to any animal from the experiment. Neither randomization nor blinding was applied in the allocation of the experiments. Health status is SPF according to FELASA recommendation.
(§2) Biodistribution studies (n = 4) and µSPECT/CT as well as µPET/CT imaging (using a MILabs VECTor^4 small-animal SPECT/PET/OI/CT device, MILabs, Utrecht, The Netherlands) at 1 and 24 h p.i. were carried out as previously published. For all ^177Lu-labeled compounds, approximately 2–3 MBq (100 pmol)—and for the ^18F-labeled analog, approximately 7 MBq (100 pmol)—were administered. For all competition studies, 2.90 mg/kg (40 nmol) of [^natLu]Lu-DOTA-MGS5 (10^−3 M in phosphate-buffered saline) were co-administered.

[2] = as above; assay type: in vivo; settings: mouse; for tissue to tissue ratio at 24 h: both sexes, CB17-SCID, total radioactivity; for tissue to tissue ratio at 24 h / tissue uptake at 24 h: 24 h p.i.; for tissue uptake at 1 h: 1 h p.i.
Method: as §1, §2

[3] = 100 pmol co-injected with DOTA-MGS5 (40 nmol), n = 2
[4] = adrenal, 100 pmol, 100 pmol, n = 4, read-out: Adrenal activity
[5] = blood, 100 pmol, 100 pmol, n = 4, read-out: Blood activity
[6] = bone, 100 pmol, 100 pmol, n = 4, read-out: Bone activity
[7] = heart, 100 pmol, 100 pmol, n = 4, read-out: Heart activity
[8] = intestine, 100 pmol, 100 pmol, n = 4, read-out: Intestine activity
[9] = liver, 100 pmol, 100 pmol, n = 4, read-out: Liver activity
[10] = lung, 100 pmol, 100 pmol, n = 4, read-out: Lung activity
[11] = muscle, 100 pmol, 100 pmol, n = 4, read-out: Muscle activity

CCCC[C@H](NC(=O)[C@H](Cc1c[nH]c2ccccc12)NC(=O)CNC(=O)[C@H](Cc1ccc(O)cc1)NC(=O)[C@H](C)NC(=O)CC[C@@H](NC(=O)CC[C@@H](NC(=O)CC[C@@H](NC(=O)CC[C@@H](NC(=O)CC[C@@H](NC(=O)CC[C@@H](NC(=O)CC[C@@H](NC(=O)CC[C@@H](NC(=O)[C@@H](CNC(=O)c1ccc([Si](F)(C(C)(C)C)C(C)(C)C)cc1)NC(=O)CN1CCN(CC(=O)O)CCN(CC(=O)O)CCN(CC(=O)O)CC1)C(=O)O)C(=O)O)C(=O)O)C(=O)O)C(=O)O)C(=O)O)C(=O)O)C(=O)O)C(=O)N[C@@H](CC(=O)O)C(=O)N[C@@H](Cc1ccccc1)C(N)=O [[^19F]F-[^177Lu]Lu-DOTA-rhCCK-18] [metal not drawn]
fold enhanced kidney values compared to [177Lu]Lu-DOTA-PP-F11N [1]: 40 fold
fold higher tumor uptake compared to [177Lu]Lu-DOTA-PP-F11N [1]: 13 fold
Pancreas activity, competition studies [1, 3]: 0.22 ± 0.02 %ID/g
Stomach activity, competition studies [1, 3]: < 2 %ID/g
Tumor activity, competition studies [1, 3]: < 2 %ID/g
Kidney activity ([1]; 100 pmol, n = 4): 134 ± 18 %ID/g
Pancreas activity ([1]; 100 pmol, n = 4): 0.34 ± 0.09 %ID/g
Stomach activity ([1]; 100 pmol, n = 4): 4.28 ± 1.05 %ID/g
Tumor activity ([1]; 100 pmol, n = 4, AR42J tumor): 25.4 ± 4.7 %ID/g
fold higher tumor uptake compared to (R)-DOTAGA derivative ([1]; b47: versus [177Lu]Lu-(R)-DOTAGA-rhCCK-16): 1.5 fold

CCCC[C@H](NC(=O)[C@H](Cc1c[nH]c2ccccc12)NC(=O)CNC(=O)[C@H](Cc1ccc(O)cc1)NC(=O)[C@H](C)NC(=O)CC[C@@H](NC(=O)CC[C@@H](NC(=O)CC[C@@H](NC(=O)CC[C@@H](NC(=O)CC[C@@H](NC(=O)CC[C@@H](NC(=O)CC[C@@H](NC(=O)CC[C@@H](NC(=O)[C@@H](CNC(=O)c1ccc([Si](F)(C(C)(C)C)C(C)(C)C)cc1)NC(=O)CN1CCN(CC(=O)O)CCN(CC(=O)O)CCN(CC(=O)O)CC1)C(=O)O)C(=O)O)C(=O)O)C(=O)O)C(=O)O)C(=O)O)C(=O)O)C(=O)O)C(=O)N[C@@H](CC(=O)O)C(=O)N[C@@H](Cc1ccccc1)C(N)=O [[^19F]F-[^177Lu]Lu-DOTA-rhCCK-18, metal not drawn]
tissue to tissue ratio at 24 h ([2]; tumor / adrenal, 100 pmol, n = 4, read-out: Tumor-to-background ratio, Adrenal): 73.3 ± 13.4
tissue to tissue ratio at 24 h ([2]; tumor / blood, 100 pmol, n = 4, read-out: Tumor-to-background ratio, Blood): 1630 ± 823
tissue to tissue ratio at 24 h ([2]; tumor / bone, 100 pmol, n = 4, read-out: Tumor-to-background ratio, Bone): 151 ± 48
tissue to tissue ratio at 24 h ([2]; tumor / heart, 100 pmol, n = 4, read-out: Tumor-to-background ratio, Heart): 312 ± 58
tissue to tissue ratio at 24 h ([2]; tumor / intestine, 100 pmol, n = 4, read-out: Tumor-to-background ratio, Intestine): 124 ± 30
tissue to tissue ratio at 24 h ([2]; tumor / kidney, 100 pmol, n = 4, read-out: Tumor-to-background ratio, Kidney): 0.19 ± 0.01
tissue to tissue ratio at 24 h ([2]; tumor / liver, 100 pmol, n = 4, read-out: Tumor-to-background ratio, Liver): 48.1 ± 6.7
tissue to tissue ratio at 24 h ([2]; tumor / lung, 100 pmol, n = 4, read-out: Tumor-to-background ratio, Lung): 236 ± 118
tissue to tissue ratio at 24 h ([2]; tumor / muscle, 100 pmol, n = 4, read-out: Tumor-to-background ratio, Muscle): 650 ± 542
tissue to tissue ratio at 24 h ([2]; tumor / pancreas, 100 pmol, n = 4, read-out: Tumor-to-background ratio, Pancreas): 78.8 ± 17.5
tissue to tissue ratio at 24 h ([2]; tumor / spleen, 100 pmol, n = 4, read-out: Tumor-to-background ratio, Spleen): 115 ± 15
tissue to tissue ratio at 24 h ([2]; tumor / stomach, 100 pmol, n = 4, read-out: Tumor-to-background ratio, Stomach): 6.58 ± 2.77
tissue uptake at 1 h [2, 4]: 0.52 ± 0.07 %ID/g
tissue uptake at 24 h [2, 4]: 0.37 ± 0.12 %ID/g
tissue uptake at 24 h ([2]; adrenal, 100 pmol co-injected with DOTA-MGS5 (40 nmol), n = 2, read-out: Adrenal activity, competition studies): 5.02 ± 4.64 %ID/g
tissue uptake at 1 h [2, 5]: 2.56 ± 0.6 %ID/g
tissue uptake at 24 h [2, 5]: 0.02 ± 0.01 %ID/g
tissue uptake at 24 h ([2]; blood, 100 pmol co-injected with DOTA-MGS5 (40 nmol), n = 2, read-out: Blood activity, competition studies): 0.02 %ID/g
tissue uptake at 1 h ([2]; blood, heart and lung, 100 pmol, span over the three organs, read-out: Blood, heart and lung levels): 0.9 to 2.6 %ID/g
tissue uptake at 24 h ([2]; blood, heart and lung, 100 pmol, the three organs, read-out: Blood, heart and lung levels): < 0.2 %ID/g
tissue uptake at 1 h [2, 6]: 0.48 ± 0.02 %ID/g
tissue uptake at 24 h [2, 6]: 0.18 ± 0.03 %ID/g
tissue uptake at 1 h [2, 7]: 0.94 ± 0.02 %ID/g
tissue uptake at 24 h [2, 7]: 0.08 ± 0.02 %ID/g
tissue uptake at 24 h ([2]; heart, 100 pmol co-injected with DOTA-MGS5 (40 nmol), n = 2, read-out: Heart activity, competition studies): 0.08 ± 0.01 %ID/g
tissue uptake at 1 h [2, 8]: 0.61 ± 0.11 %ID/g
tissue uptake at 24 h [2, 8]: 0.21 ± 0.02 %ID/g
tissue uptake at 24 h ([2]; intestine, 100 pmol co-injected with DOTA-MGS5 (40 nmol), n = 2, read-out: Intestine activity, competition studies): 0.17 ± 0.06 %ID/g
tissue uptake at 1 h ([2]; kidney, 100 pmol, 100 pmol, n = 4, read-out: Kidney activity): 97.2 ± 14 %ID/g
tissue uptake at 24 h ([2]; kidney, 100 pmol co-injected with DOTA-MGS5 (40 nmol), n = 2, read-out: Kidney activity, competition studies): 193 ± 15 %ID/g
tissue uptake at 1 h [2, 9]: 1.15 ± 0.18 %ID/g
tissue uptake at 24 h [2, 9]: 0.53 ± 0.07 %ID/g
tissue uptake at 24 h ([2]; liver, 100 pmol co-injected with DOTA-MGS5 (40 nmol), n = 2, read-out: Liver activity, competition studies): 1.51 ± 0.02 %ID/g
tissue uptake at 1 h [2, 10]: 2.05 ± 0.2 %ID/g
tissue uptake at 24 h [2, 10]: 0.18 ± 0.15 %ID/g
tissue uptake at 24 h ([2]; lung, 100 pmol co-injected with DOTA-MGS5 (40 nmol), n = 2, read-out: Lung activity, competition studies): 0.76 ± 0.17 %ID/g
tissue uptake at 1 h [2, 11]: 0.38 ± 0.03 %ID/g
tissue uptake at 24 h [2, 11]: 0.08 ± 0.06 %ID/g
tissue uptake at 24 h ([2]; muscle, 100 pmol co-injected with DOTA-MGS5 (40 nmol), n = 2, read-out: Muscle activity, competition studies): 0.07 ± 0.04 %ID/g
tissue uptake at 1 h ([2]; pancreas, 100 pmol, 100 pmol, n = 4, read-out: Pancreas activity): 1.22 ± 0.21 %ID/g
tissue uptake at 1 h ([2]; spleen, 100 pmol, 100 pmol, n = 4, read-out: Spleen activity): 0.6 ± 0.08 %ID/g
tissue uptake at 24 h ([2]; spleen, 100 pmol co-injected with DOTA-MGS5 (40 nmol), n = 2, read-out: Spleen activity, competition studies): 0.95 ± 0.14 %ID/g
tissue uptake at 1 h ([2]; stomach, 100 pmol, 100 pmol, n = 4, read-out: Stomach activity): 4.25 ± 0.45 %ID/g
tissue uptake at 1 h ([2]; tumor, 100 pmol, 100 pmol, n = 4, AR42J tumor, read-out: Tumor activity): 24.1 ± 4.2 %ID/g
tissue uptake at 24 h ([2]; tumor, 100 pmol co-injected with DOTA-MGS5 (40 nmol), n = 2, read-out: Tumor activity, competition studies): 1.75 ± 0.26 %ID/g
